Data from patent US20240366612A1, “COMPOUNDS AND METHODS FOR MODULATING NUCLEIC ACID SPLICING” (REMIX THERAPEUTICS INC., priority 2021, published 2024).
pIC50: −log10 of the molar value. Structures can show the parent of a compound that is named as a salt.

Tested on: HTT CJ mRNA
Assay: Gene panel canonical junction qPCR assay, HTT
Format: cell-based
Details: Homo sapiens, larger gene panel, read-out: HTT IC50 (decrease in CJ mRNA levels)
Method: Compounds described herein were used to modulate RNA transcript abundance in cells. The expression of a target mRNA was measured by detecting the formation of an exon-exon junction in the canonical transcript (CJ). A compound mediated exon-inclusion event was detected by observing an increase in formation of a new junction with an alternative exon (AJ). Real-time qPCR assays were used to detect these splicing switches and interrogate the potency of various compounds towards different target genes. A high-throughput real time quantitative PCR (RT-qPCR) assay was developed to measure these two isoforms of the mRNA (CJ and AJ) for exemplary genes, such as HTT, SMN2, and MYB, together with a control housekeeping gene, GAPDH or GUSB or PPIA, used for normalization. Briefly, the A673 or K562 cell line was treated with various compounds described herein (e.g., compounds of Formula (I)). After treatment, the levels of the HTT, MYB, or SMN2 mRNA targets were determined from each sample of cell lysate by cDNA synthesis followed by qPCR.
The A673 cell line was cultured in DMEM with 10% FBS. Cells were diluted with full growth media and plated in a 96-well plate (15,000 cells in 100 ul media per well). The plate was incubated at 37° C. with 5% CO2 for 24 hours to allow cells to adhere. An 11-point 3-fold serial dilution of the compounds was made in DMSO then diluted in media in an intermediate plate. Compounds were transferred from the intermediate plate to the cell plate with the top dose at a final concentration of 10 uM in the well. Final DMSO concentration was kept at or below 0.25%. The cell plate was returned to the incubator at 37° C. with 5% CO2 for an additional 24 hours.
The K562 cell line was cultured in IMDM with 10% FBS. For K562, cells were diluted with full growth media and plated in either a 96-well plate (50,000 cells in 50 uL media per well) or a 384-well plate (8,000-40,000 cells in 45 uL media per well). An 11-point 3-fold serial dilution of the compounds were made in DMSO then diluted in media in an intermediate plate. Compound was transferred from the intermediate plate to the cell plate with the top dose at a final concentration of 10 uM in the well. Final DMSO concentration was kept at or below 0.25%. Final volume was 100 uL for 96-well plate and 50 uL for 384-well plate. The cell plate was then placed in an incubator at 37° C. with 5% CO2 for 24 hours.
The data analysis was performed by first determining the ΔCt vs the housekeeper gene. This ΔCt was then normalized against the DMSO control (ΔΔCt) and converted to RQ (relative quantification) using the 2^(−ΔΔCt) equation. The RQ were then converted to a percentage response by arbitrarily setting an assay window of 3.5 and 4.0 ΔCt for HTT-CJ and MYB-CJ respectively and an assay window of 9 and 3 ΔCt for HTT-AJ and MYB-AJ in 96 well format (50,000 K562 cells/well and 15,000 A673 cells per well) and an assay window of 3 and 4 ΔCt for HTT-CJ and MYB-CJ respectively and an assay window of 5 and 3 ΔCt for HTT-AJ and MYB-AJ respectively in 384 well format (8,000 K562 cells/well example). […] The percentage response was then fitted to the 4 parametric logistic equation to evaluate the concentration dependence of compound treatment. The increase in AJ mRNA is reported as AC50 (compound concentration having […] in AJ increase) while the decrease in CJ mRNA levels is reported as IC50 (compound concentration having 50% response in CJ decrease).
Additional studies were carried out for a larger panel of genes using the protocol provided above. The junction between flanking upstream and downstream exons was used to design canonical junction qPCR assays. At least one of the forward primer, reverse primer or the CY5-labeled 5′ nuclease probe (with 3′ quencher such as ZEN/Iowa Black FQ) was designed to overlap with the exon junction to capture the CJ mRNA transcript. […]

SMILES | pIC50
Cc1cn2cc(-c3nc4sc(C5CCN(C)CC5)cc4c(=O)[nH]3)cc(F)c2n1 [Compound 256, 2-(8-fluoro-2-methylimidazo[1,2-a]pyridin-6-yl)-6-(1-methylpiperidin-4-yl)thieno[2,3-d]pyrimidin-4(3H)-one] | < 5.00
Cc1cn2cc(-c3nc4cnn(C5CCNCC5)c(=O)c4s3)nc(C)c2n1 [Compound 812, 2-(2,8-dimethylimidazo[1,2-a]pyrazin-6-yl)-6-(piperidin-4-yl)thiazolo[4,5-d]pyridazin-7(6H)-one] | < 5.00
Cc1cn2cc(-c3cc4ncn(C5CNCCC5=O)c(=O)c4s3)cc(F)c2n1 (stereo not drawn) [Compound 279, 3-(6-{8-fluoro-2-methylimidazo[1,2-a]pyridin-6-yl}-4-oxothieno [3,2-d]pyrimidin-3-yl)piperidin-4-one] | < 5.00
Cc1cn2cc(-n3ccc4cc(C5CCNCC5)sc4c3=O)cc(F)c2n1 [Compound 801, 6-[8-fluoro-2-methylimidazo[1,2-a]pyridin-6-yl]-2-(piperidin-4-yl)thieno[2,3-c]pyridin-7-one] | < 5.00
Cc1cn2cc(-c3cc4ncn(C5CCNCC5(F)F)c(=O)c4s3)cc(F)c2n1 (stereo not drawn) [Compound 274, 3-(3,3-difluoropiperidin-4-yl)-6-{8-fluoro-2-methylimidazo[1,2-a]pyridin-6-yl}thieno[3,2-d]pyrimidin-4-one] | < 5.00
Cc1cn2nc(-c3nc4sc(N5CCN(C)CC5)nc4c(=O)[nH]3)cc2c(C)n1 [Compound 268] | < 5.00
Cc1cn2cc(N3CCc4cc(C5CCNCC5)sc4C3=O)cc(F)c2n1 [Compound 800, 6-[8-fluoro-2-methylimidazo[1,2-a]pyridin-6-yl]-2-(piperidin-4-yl)-4H,5H-thieno[2,3-c]pyridin-7-one] | < 5.00
Cn1cc2cc(-c3nc4ncn(C5CCNCC5)c(=O)c4s3)c(O)cc2n1 [Compound 253, 2-(6-hydroxy-2-methyl-2H-indazol-5-yl)-6-(piperidin-4-yl)thiazolo[4,5-d]pyrimidin-7(6H)-one, hydrochloride] | 5.00 to 6.00
Cc1cn2cc(-c3cc4ncn(C5CCNCC5)c(=O)c4s3)ncc2n1 [Compound 264] | 5.00 to 6.00
Cc1cn2cc(-n3cnc4nc(N5CCNCC5)sc4c3=O)cc(C(F)(F)F)c2n1 [Compound 229, 6-(2-methyl-8-(trifluoromethyl)imidazo[1,2-a]pyridin-6-yl)-2-(piperazin-1-yl)thiazolo[4,5-d]pyrimidin-7(6H)-one] | < 5.00
Cc1cn2cc(-n3cnc4nc(N5CCN(C)CC5)sc4c3=O)cc(C(F)(F)F)c2n1 [Compound 230, 6-(2-methyl-8-(trifluoromethyl)imidazo[1,2-a]pyridin-6-yl)-2-(4-methylpiperazin-1-yl)thiazolo[4,5-d]pyrimidin-7(6H)-one] | < 5.00
Cc1cn2nc(-c3cc4ccn(C5CCN(C)CC5)c(=O)c4s3)cc(C)c2n1 [Compound 809] | 5.00 to 6.00
Cc1nc(-c2cc3ncn(C4CCNCC4)c(=O)c3s2)cc2cn(C)nc12 [Compound 271] | 5.00 to 6.00
Cn1cc2cc(-n3cnc4nc(N5CCNCC5)sc4c3=O)ccc2n1 [Compound 225, 6-(2-methyl-2H-indazol-5-yl)-2-(piperazin-1-yl)thiazolo[4,5-d]pyrimidin-7(6H)-one] | < 5.00
Cc1cn2cc(-c3nn4c(=O)cc(N5CCN(C)C6(CC6)C5)nc4s3)cc(F)c2n1 [Compound 218, 2-(8-fluoro-2-methylimidazo[1,2-a]pyridin-6-yl)-7-(4-methyl-4,7-diazaspiro[2.5]octan-7-yl)-5H-[1,3,4]thiadiazolo[3,2-a]pyrimidin-5-one] | 5.00 to 6.00

The remaining lines, values ahead:

pIC50 | SMILES
6.00 to 7.00 | Cc1cn2cc(-c3cc4ncn([C@H]5CCN[C@@H](C)C5)c(=O)c4s3)cc(F)c2n1 (relative stereo) [Compound 278, 6-{8-fluoro-2-methylimidazo[1,2-a]pyridin-6-yl}-3-[(cis)-2-methylpiperidin-4-yl]thieno[3,2-d]pyrimidin-4-one hydrochloride]
6.00 to 7.00 | Cc1cn2cc(-c3cc4ncn([C@H]5CCNC[C@H]5F)c(=O)c4s3)cc(F)c2n1 (relative stereo) [Compound 273, cis-6-{8-fluoro-2-methylimidazo[1,2-a]pyridin-6-yl}-3-[3-fluoropiperidin-4-yl]thieno[3,2-d]pyrimidin-4-one]
5.00 to 6.00 | COc1cc(-c2cc3ncn(C4CCNCC4)c(=O)c3s2)ccn1 [Compound 263]
6.00 to 7.00 | Cc1cn2cc(-c3nc4sc(C5CCNCC5)cc4c(=O)[nH]3)cc(F)c2n1 [Compound 250, 2-(8-fluoro-2-methylimidazo[1,2-a]pyridin-6-yl)-6-(piperidin-4-yl)thieno[2,3-d]pyrimidin-4(3H)-one]
> 7.00 | Cc1cn2cc(-c3nc4ncn(C5CCNCC5)c(=O)c4s3)cc(F)c2n1 [Compound 232, 2-(8-fluoro-2-methylimidazo[1,2-a]pyridin-6-yl)-6-(piperidin-4-yl)thiazolo[4,5-d]pyrimidin-7(6H)-one]
6.00 to 7.00 | Cc1cn2cc(-c3cc4ncn(N5CCNCC5)c(=O)c4s3)cc(F)c2n1 [Compound 269, 6-{8-fluoro-2-methylimidazo[1,2-a]pyridin-6-yl}-3-(piperazin-1-yl)thieno[3,2-d]pyrimidin-4-one]
5.00 to 6.00 | Cn1cc2cc(-c3cc4ncn(C5CCNCC5)c(=O)c4s3)cc(C#N)c2n1 [Compound 259]
5.00 to 6.00 | Cc1cn2nc(-c3cn4c(=O)cc(N5CCNC6(CC6)C5)nc4s3)cc(C)c2n1 [Compound 212, 2-(2,8-dimethylimidazo[1,2-b]pyridazin-6-yl)-7-(4,7-diazaspiro[2.5]octan-7-yl)-5H-thiazolo[3,2-a]pyrimidin-5-one]
6.00 to 7.00 | Cc1cn2cc(-c3cc4ccn(C5CCNCC5)c(=O)c4s3)cc(F)c2n1 [Compound 804, 2-(8-fluoro-2-methylimidazo[1,2-a]pyridin-6-yl)-6-(piperidin-4-yl)thieno[2,3-c]pyridin-7(6H)-one]
5.00 to 6.00 | Cc1cc(-c2nn3c(=O)cc(N4CCNCC4)nc3s2)cc2cn(C)nc12 [Compound 206, 2-(2,7-dimethyl-2H-indazol-5-yl)-7-(piperazin-1-yl)-5H-[1,3,4]thiadiazolo[3,2-a]pyrimidin-5-one]
6.00 to 7.00 | Cc1cn2cc(-c3cc4ncn(C5CCCNCC5)c(=O)c4s3)cc(F)c2n1 (stereo not drawn) [Compound 275, 3-(azepan-4-yl)-6-{8-fluoro-2-methylimidazo[1,2-a]pyridin-6-yl}thieno[3,2-d]pyrimidin-4-one]
> 7.00 | Cc1cc(-c2nc3ncn(C4CCNCC4)c(=O)c3s2)cc2cn(C)nc12 [Compound 233, 2-(2,7-dimethyl-2H-indazol-5-yl)-6-(piperidin-4-yl)thiazolo[4,5-d]pyrimidin-7(6H)-one]
5.00 to 6.00 | Cn1cc2cc(-c3cc4ncn(C5CCNCC5)c(=O)c4s3)cc(F)c2n1 [Compound 257]
6.00 to 7.00 | Cc1cn2cc(-c3cc4ncn(C5CCN(C)CC5)c(=O)c4s3)cc(F)c2n1 [Compound 265, 6-{8-fluoro-2-methylimidazo[1,2-a]pyridin-6-yl}-3-(1-methylpiperidin-4-yl)thieno[3,2-d]pyrimidin-4-one]
6.00 to 7.00 | Cc1cn2nc(-c3nc4sc(N5CCNCC5)nc4c(=O)[nH]3)cc2c(C)n1 [Compound 267]
6.00 to 7.00 | Cc1cc(-c2cc3ccn(C4CCNCC4)c(=O)c3s2)cc2cn(C)nc12 [Compound 805, 2-(2,7-dimethyl-2H-indazol-5-yl)-6-(piperidin-4-yl)thieno[2,3-c]pyridin-7(6H)-one]
5.00 to 6.00 | Cc1nc(-c2nc3cnn(C4CCNCC4)c(=O)c3s2)cc2cn(C)nc12 [Compound 811]
6.00 to 7.00 | Cc1cn2cc(-c3cc4ncn(C5CCNCC5)c(=O)c4s3)cc(C)c2n1 [Compound 261]
